Tests used:
human volunteers = settings: cited from earlier work
[1] = tested on: Hairless albino Sh:HR-1 mice; assay: UVB induced skin carcinogenesis in hairless mice (tumour multiplicity); type: in vivo, mouse; settings: one minimal erythemal dose of UVB daily for 10 weeks; tumours counted at weeks 11, 13, 14, 15, 16 and 17; versus control group
Description: Hairless mouse strains such as the HRA-Skh-1 mice are a standard mouse model used to study solar damage to human skin (Canfield et al., 1985—reference 1). Exposure of the hairless mouse to UV light mimics “sunburn” in humans. With continued irradiation treatment, this on-going damage is reflected in progressive thickening of the skin which histologically mimics hyperkeratinization and elastosis associated with photoaging and chronically sun-exposed skin in humans. Pre-malignant tumours begin to appear within several weeks of completion of the ultra violet light regimen. Over an ensuing time period there is a progressive development of pre-malignant and malignant tumours, the histology and behaviour of which closely mimic keratoses and pre-malignant and malignant skin cancers that develop in humans in response to sunlight.
Hairless albino Sh:HR-1 mice are divided into two groups each containing 20 animals. The first group receiving Nle^4-D-Phe^7-alpha-MSH, and the second group being a control group. Both groups receive one minimal erythemal dose of UVB light to stimulate the toxic effect of sunlight on the skin daily for 10 weeks. At weeks 11, 13, 14, 15, 16 and 17 the number of skin tumours on each animal is measured and calculated as tumour multiplicity, i.e. average number of tumours per mouse.

[Nle^4,D-Phe^7]-alpha-MSH [Nle^4-D-Phe^7-α-MSH]
induction of melanin synthesis (human volunteers): can induce melanin synthesis
protection against UVB induced carcinogenesis (tumour multiplicity, average number of tumours per mouse) [1]: Protection against UVB induced carcinogenesis is observed

Source: patent US20100113337A1, “METHOD FOR REDUCING INCIDENCE OR RATE OF DEVELOPMENT OF SKIN CANCERS AND RELATED CONDITIONS” (Clinuvel Pharmaceuticals Limited, priority 2006, published 2010)
